Assay results: US4540700A, “Treatment of diabetic complications with certain spiro-imidazolidine-diones” (Alcon Laboratories, Inc., priority 1984, dated 1985)

Tested on: cataract formation in galactocemic rats
Experiment: in vivo dose response by intubation (per oral) in galactocemic rats, cataract (vacuole) formation
Design: species or system Charles River CD (Sprague-Dawley derived) male rats
Description: B. In vivo dose response studies were conducted to test the in vivo activity of the following compounds by intubation (per oral) in galactocemic rats on a 30% galactose diet previously described:
Stock suspensions of the test compounds and all dilutions of the compound were formulated with 0.03% by weight Tween 80.
Healthy, Charles River CD (outbred albino, Sprague-Dawley derived) male rats, aged 20-30 days, without observable ocular defects and ranging in weight from 35-45 grams, were acclimated to experimental conditions (in quarantine) for two days prior to beginning the study.
Rats were individually assigned to one of twenty-three groups according to a random number schedule. Two rats, belonging to the same drug-diet treatment group, were housed per cage. Treatment and control groups consisted of six (6) rats each with no replacement in the event of death, and were designated as follows:
Lenses of all eyes were examined with a hand-held ophthalmoscope in the early stages of cataract development and a penlight for the stages, snowflake-like, snowflake, and nuclear cataract. Lens grading occurred every day for the first ten study days, and then every other day until study Day 14.
The relative potency determination was made at 7 drug levels over half log dose intervals. The response (percent cataracts formed and/or the time to cataract formation) was plotted against mg/kg and/or moles/kg.
The study was directed to the suppression and/or elimination of the initial stages of cataract development characterized by vacuoles or snowflake-likeopacities only. It was assumed therefore that suppression and/or elimination of vacuoles or lens opacification by the test drugs affects the transport, absorption and/or metabolism of galactose in such a manner as to prevent subsequent osmotic disturbances normally leading to tissue degeneration and advanced cataract. Advanced cataract defined as stages 2-4 of the Sipple classification was assumed to be of secondary importance to the etiology of cataract inhibition.
In the event where cataract stage other than vacuole formed, such as snowflake-like opacities, this cataract was counted similarly as vacuole in percent cataract formation.
This study yielded this expected effect in the control groups.
All animals were fed Purina Laboratory Chow and water, ad libitum, for the two day acclimation period. All drugs were dosed orally by intubation using an animal feeding needle (Popper and Sons), 18 or 20 gauge, attached to a 1 or 3 ml syringe. Once the dosing time schedule was established, the schedule was followed throughout the study to compensate for any diurnal variation.
The animals were kept on a twelve hour day/night cycle. The temperature and humidity were determined each day at the scheduled dosing time of 1:00 p.m.
The animals were weighed every other day and adjustments to dosage amounts to compensate for weight gain were made each day prior to the dose time. All food was routinely withheld from all animal groups for four hours (9:00 a.m.) prior to the drug dose and restored two hours (3:00 p.m.) post-dose. Otherwise sufficient amounts of chow or diet mixture were maintained in the food hopper to allow the animals to eat ad libitum. There were two days of drug dosage with the animals remaining on Purina Laboratory Chow (Days 1 and 2). The 30% galactose diet mixture was introduced to the animals two hours post-dose on Day 3 which constituted Day 1 of the study.
All eyes were examined with a hand-held ophthalmoscope and/or penlight at the times designated in the Experimental Design section.
It has been found in previous studies that dilation of the eye with a mydriactic (i.e. Mydriacyl) is not necessary for accurate grading, due to the semi-transparent nature of the rat iris. In the early stages (i.e., grades -, ±, and +) the lens was observed by reflecting the ophthalmoscope beam off the retina back through the lens and iris. Using this technique, vacuoles appear as dark, almost opaque patches. […]

Measured: Percent of Rat Eyes With at Least Vacuoles Formed

O=C1NC(=O)C2(N1)c1ccccc1-c1ccc(F)cc12 (racemic) [Compound L, dl-Spiro(2-fluorofluoren-9,4'-imidazolidine)-2',5'-dione]
0.0%: 1.26 mg/kg p.o., Day 6 | 4.0 mg/kg p.o., Day 6 | 4.0 mg/kg p.o., Day 7 | 4.0 mg/kg p.o., Day 8
67%: 0.4 mg/kg p.o., Day 10
83%: 0.126 mg/kg p.o., Day 12 | 0.126 mg/kg p.o., Day 14 | 0.4 mg/kg p.o., Day 12
0%: 0.126 mg/kg p.o., Day 0 | 0.126 mg/kg p.o., Day 1 | 0.126 mg/kg p.o., Day 2 | 0.126 mg/kg p.o., Day 3 | 0.126 mg/kg p.o., Day 4 | 0.126 mg/kg p.o., Day 5 | 0.4 mg/kg p.o., Day 0 | 0.4 mg/kg p.o., Day 1 | 0.4 mg/kg p.o., Day 2 | 0.4 mg/kg p.o., Day 3 | 0.4 mg/kg p.o., Day 4 | 0.4 mg/kg p.o., Day 5 | 0.4 mg/kg p.o., Day 6 | 1.26 mg/kg p.o., Day 0 | 1.26 mg/kg p.o., Day 1 | 1.26 mg/kg p.o., Day 2 | 1.26 mg/kg p.o., Day 3 | 1.26 mg/kg p.o., Day 4 | 1.26 mg/kg p.o., Day 5 | 1.26 mg/kg p.o., Day 6, listed as 2-fluoro | 1.26 mg/kg p.o., Day 7 | 1.26 mg/kg p.o., Day 8 | 1.26 mg/kg p.o., Day 9 | 1.26 mg/kg p.o., Day 10 | 1.26 mg/kg p.o., Day 12 | 1.26 mg/kg p.o., Day 14 | 4.0 mg/kg p.o., Day 0 | 4.0 mg/kg p.o., Day 1 | 4.0 mg/kg p.o., Day 2 | 4.0 mg/kg p.o., Day 3 | 4.0 mg/kg p.o., Day 4 | 4.0 mg/kg p.o., Day 5 | 4.0 mg/kg p.o., Day 6, listed as 2-fluoro | 4.0 mg/kg p.o., Day 7, listed as 2-fluoro
42%: 0.4 mg/kg p.o., Day 8 | 0.4 mg/kg p.o., Day 9
8%: 0.4 mg/kg p.o., Day 7
100%: 0.4 mg/kg p.o., Day 14
33%: 0.126 mg/kg p.o., Day 6 | 0.126 mg/kg p.o., Day 7
50%: 0.126 mg/kg p.o., Day 8 | 0.126 mg/kg p.o., Day 9 | 0.126 mg/kg p.o., Day 10
